The term EC50 denotes the concentration at which the effect is half-maximal. By inhibition is commonly meant the change of the read-out against control, counted positive when it falls. The term LD50 denotes the dose at which mortality reaches 50%. Read a low LD50 as a more toxic substance.

Active and inactive are the calls of the source. The rule behind the calls is not given here.

Drawing on ChEMBL document CHEMBL2150848, “Artificial ladder-shaped polyethers that inhibit maitotoxin-induced Ca2+ influx in rat glioma C6 cells” (Bioorg Med Chem Lett, 2012), this text covers EC50, inhibition and LD50 for 5 compounds.

For data set [1], the system named is C6. The experiment in a line: Inhibition of MTX-induced calcium influx in rat glioma C6 cells using 45CaCl2 incubated for 12 mins prior to MTX-challenge measured after 12 mins by scintillation counting. In kind it is functional, cell-based.
Data set [2] deals with C6. The data set is described as follows: Inhibition of MTX-induced calcium influx in rat glioma C6 cells using 45CaCl2 at 10 uM incubated for 12 mins prior to MTX-challenge measured after 12 mins by scintillation counting relative to untreated-control. In kind it is functional.
Data set [3] has as its system C6. The experiment in a line: Inhibition of MTX-induced 45Ca2+ influx in rat glioma C6 cells. In kind it is functional, cell-based.
Another data set concerns Mus musculus. The experiment in a line: Toxicity in ip dosed mouse. As to conditions: in vivo. In kind it is organism-based.

In the case of `C[C@@]12CC[C@@H]3O[C@@H]4C[C@@H]5O[C@@H]6C[C@@H]7O[C@]8(C)CC[C@@H]9O[C@H](CO)[C@@H](O)C[C@H]9O[C@H]8C[C@H]7O[C@H]6CC[C@@]5(C)O[C@H]4C[C@H]3O[C@H]1C[C@H]1O[C@@H](CCOCc3ccccc3)[C@H](OCc3ccccc3)C[C@@H]1O2`, the EC50 in the data set on C6 [1] was determined as 15 µM.

Consider `C[C@@]12CC[C@@H]3O[C@@H]4C[C@@H]5O[C@@H]6C[C@H](O)[C@@H](CO)O[C@H]6CC[C@@]5(C)O[C@H]4C[C@H]3O[C@H]1C[C@H]1O[C@@H](CCOCc3ccccc3)[C@H](OCc3ccccc3)C[C@@H]1O2`, for which, in the data set with C6 [1], the EC50 was determined as 2 µM and the inhibition entry is “Dose-dependent effect”. Also, the inhibition at 10 µM with C6 [2] was found to be 80%.

With `C=C(C=O)C[C@@H]1C[C@H](O)[C@@H]2O[C@@H]3C[C@]4(C)O[C@@H]5/C=C\C[C@@H]6O[C@H]7[C@H](C/C=C\C[C@H]6O[C@H]5CCC[C@H]4O[C@H]3C[C@H]2O1)O[C@@H]1C[C@@H]2O[C@@H]3CC(=O)O[C@H]3C[C@@H](C)C[C@@]2(C)O[C@H]1C[C@@H]7C` [BREVETOXIN A], it took 16 µM to reach a half-maximal effect in the data set with C6 [3] (EC50).

Take `C=C(C=O)C[C@@H]1C[C@H](O)[C@]2(C)O[C@@H]3C[C@@H]4O[C@@H]5C[C@]6(C)O[C@]7(C)CC[C@@H]8O[C@@H]9C[C@]%10(C)O[C@@H]%11C(C)=CC(=O)O[C@H]%11C[C@H]%10O[C@H]9C[C@@H](C)[C@H]8O[C@H]7C[C@H]6O[C@@]5(C)C/C=C\[C@H]4O[C@H]3C[C@H]2O1` [BREVETOXIN B]: the inhibition result in the data set with C6 [1] was “Active”. This compound also showed an EC50 in the data set with C6 [3] of 13 µM.

`C=CC[C@H](C)[C@H](C)C[C@@H](O)[C@H](O)[C@@H]1CC[C@@]2(C)O[C@@]3(C)C[C@@]4(C)O[C@H]5/C=C\C[C@H]6O[C@H]7C[C@H]8O[C@H]9C[C@@]%10(C)O[C@@](C)([C@@H]%11CC[C@H]%12O[C@@]%13(C)C[C@H]%14O[C@@]%15(C)C[C@H]%16O[C@@]%17(C)C[C@@H](O)[C@H]([C@@H]%18O[C@H]%19[C@H](O)[C@@H](O)[C@H](C[C@H](O)C[C@@H](O)[C@@H]%20O[C@H]%21[C@H](O)[C@@H](O)[C@H]([C@@H]%22O[C@@H]%23[C@H](O)[C@H]%24O[C@H]%25C[C@H]%26O[C@@H](C[C@H](O)[C@@H](O)[C@H]%27O[C@H]%28[C@H](O)[C@H]%29O[C@H]%30C[C@H]%31O[C@H]%32[C@@H](O)[C@@H](O)[C@H]([C@H](C)[C@H](O)[C@H](C)CC[C@H](OS(=O)(=O)[O-])[C@H](O)[C@H](C)C[C@@H](O)C(=C)/C(C)=C/CO)O[C@@H]%32[C@H](O)C[C@]%31(C)O[C@@H]%30C[C@]%29(C)O[C@@H]%28C[C@H]%27O)[C@H](OS(=O)(=O)[O-])[C@H](O)[C@@H]%26O[C@@H]%25C[C@@H]%24O[C@H]%23[C@H](O)[C@H]%22O)O[C@H]%21C[C@H]%20O)O[C@H]%19C[C@H]%18O)O[C@@H]%17[C@H](O)[C@]%16(C)O[C@@H]%15CC[C@]%14(C)O[C@@H]%13C[C@@H]%12O%11)[C@H](O)C[C@@H]%10O[C@]9(C)CC[C@]8(C)O[C@]7(C)C[C@@H]6O[C@@H]5C[C@@H]4O[C@@H]3C[C@@H]2O1.[Na+].[Na+]` [MAITOTOXIN] came in with an LD50 in the data set with Mus musculus of 0.05 µg/kg.
